# How the values were obtained:
# [1] = tested on: mouse FL5.12 cells transfected with Bcl-xL; assay: FL5.12 cellular assay (cell viability, CellTiter-Glo); format: cell-based; conditions: IL-3-depleted, 3% FBS assay media, 24 hours, read-out: FL5.12 Bcl-xL, -IL3, EC50
# Procedure: Cell viability was assayed using the CellTiter-Glo assay (Promega Corp., Madison, WI) according to the manufacturer instructions. Individual determinations were the result of duplicate values. […] Table 2. In Vitro Data
# [2] = tested on: Molt-4 human acute lymphoblastic leukemia cells; assay: Molt-4 cellular assay (cell viability, MTS); format: cell-based; conditions: 10% human serum, 48 hours
# Procedure: Molt-4 (ATCC, Manassas, VA) human acute lymphoblastic leukemia cells were plated 50,000 cells per well in 96-well tissue culture plates in a total volume of 100 µL tissue culture medium supplemented with 10% human serum (Invitrogen, Carlsbad, CA) and treated with a 3-fold serial dilution of the compounds of interest from 5 µM to […]. Each concentration was tested in duplicate at least 3 separate times. The number of viable cells following 48 hours of compound treatment was determined using the CellTiter 96® Aqueous non-radioactive cell proliferation MTS assay according to manufacturer's recommendations (Promega Corp., Madison, WI).
EC50 [2] [µM],SMILES,EC50 [1] [µM]
0.201,"O=C(Nc1nc2ccccc2s1)c1cccc2c1CN(c1ccc(-c3cnn(CC45CC6CC(CC(C6)C4)C5)c3)c(C(=O)O)n1)CC2 [Example 1, 6-[8-(1,3-benzothiazol-2-ylcarbamoyl)-3,4-dihydroisoquinolin-2(1H)-yl]-3-{1-[tricyclo[3.3.1.1^3,7]dec-1-ylmethyl]-1H-pyrazol-4-yl}pyridine-2-carboxylic acid]",0.039
0.487,"O=C(Nc1nc2ccccc2s1)c1cccc2c1CN(c1ccc(-c3cnn(CC4C5CC6CC(C5)CC4C6)c3)c(C(=O)O)n1)CC2 (stereo not shown) [Example 10, 6-[8-(1,3-benzothiazol-2-ylcarbamoyl)-3,4-dihydroisoquinolin-2(1H)-yl]-3-[1-(tricyclo[3.3.1.1^3,7]dec-2-ylmethyl)-1H-pyrazol-4-yl]pyridine-2-carboxylic acid]",0.029
0.004,"COCCOC12CC3CC(CC(Cn4ncc(-c5ccc(N6CCc7cccc(C(=O)Nc8nc9ccccc9s8)c7C6)nc5C(=O)O)c4C)(C3)C1)C2 [Example 45, 6-[8-(1,3-benzothiazol-2-ylcarbamoyl)-3,4-dihydroisoquinolin-2(1H)-yl]-3-(1-{[3-(2-methoxyethoxy)tricyclo[3.3.1.1^3,7]dec-1-yl]methyl}-5-methyl-1H-pyrazol-4-yl)pyridine-2-carboxylic acid]",0.0009
0.029,"Cc1c(-c2ccc(N3CCc4cccc(C(=O)Nc5nc6ccccc6s5)c4C3)nc2C(=O)O)cccc1N(C)C(=O)C12CC3CC(CC(C3)C1)C2 [Example 52, 6-[8-(1,3-benzothiazol-2-ylcarbamoyl)-3,4-dihydroisoquinolin-2(1H)-yl]-3-(2-methyl-3-{methyl[tricyclo[3.3.1.1^3,7]dec-1-ylcarbonyl]amino}phenyl)pyridine-2-carboxylic acid]",0.003
0.035,"Cc1c(-c2ccc(N3CCc4cccc(C(=O)Nc5nc6ccccc6s5)c4C3)nc2C(=O)O)cc(C#N)n1CC12CC3CC(CC(C)(C3)O1)C2 [Example 72, 6-[8-(1,3-benzothiazol-2-ylcarbamoyl)-3,4-dihydroisoquinolin-2(1H)-yl]-3-{5-cyano-2-methyl-1-[(3-methyl-2-oxatricyclo[3.3.1.1^3,7]dec-1-yl)methyl]-1H-pyrrol-3-yl}pyridine-2-carboxylic acid]",0.0002
0.526,"Cc1c(OC23CC4CC(CC(C4)C2)C3)cccc1-c1ccc(N2CCc3cccc(C(=O)Nc4nc5ccccc5s4)c3C2)nc1C(=O)O [Example 28, 6-[8-(1,3-benzothiazol-2-ylcarbamoyl)-3,4-dihydroisoquinolin-2(1H)-yl]-3-{2-methyl-3-[tricyclo[3.3.1.1^3,7]dec-1-yloxy]phenyl}pyridine-2-carboxylic acid]",0.022
0.016,"Cc1c(-c2ccc(N3CCc4cccc(C(=O)Nc5nc6ccccc6s5)c4C3)nc2C(=O)O)cc(C#N)n1CC12CC3CC(CC(C3)C1)C2 [Example 23, 6-[8-(1,3-benzothiazol-2-ylcarbamoyl)-3,4-dihydroisoquinolin-2(1H)-yl]-3-[5-cyano-2-methyl-1-(tricyclo[3.3.1.1^3,7]dec-1-ylmethyl)-1H-pyrrol-3-yl]pyridine-2-carboxylic acid]",< 0.001
–,"Cc1c(-c2ccc(N3CCc4cccc(C(=O)Nc5nc6ccccc6s5)c4C3)nc2C(=O)O)ccnc1N(C)C1CCCCCCC1 [Example 61, 6-[8-(1,3-benzothiazol-2-ylcarbamoyl)-3,4-dihydroisoquinolin-2(1H)-yl]-2'-[cyclooctyl(methyl)amino]-3'-methyl-3,4'-bipyridine-2-carboxylic acid]",0.01
–,"Cc1c(-c2ccc(N3CCc4cccc(C(=O)Nc5nc6ccccc6s5)c4C3)nc2C(=O)O)cccc1S(=O)(=O)N(C)C1C2CC3CC(C2)CC1C3 (stereo not shown) [Example 69, 6-[8-(1,3-benzothiazol-2-ylcarbamoyl)-3,4-dihydroisoquinolin-2(1H)-yl]-3-(2-methyl-3-{methyl[tricyclo[3.3.1.1^3,7]dec-2-yl]sulfamoyl}phenyl)pyridine-2-carboxylic acid]",0.449
